Measurements from ChEMBL document CHEMBL4270553, “Synthesis and anticancer activity of new dihydropyrimidinone derivatives” (Eur J Med Chem, 2018).

What was measured:
Assay type in all cases: functional
UACC-62 = assay: Antiproliferative activity against human UACC62 cells assessed as growth inhibition at 10 uM after 48 hrs by sulforhodamine B assay relative to control; details: UACC-62, 48 h, read-out: GI
SR = assay: Antiproliferative activity against human SR cells assessed as growth inhibition at 10 uM after 48 hrs by sulforhodamine B assay relative to control; details: read-out: GI
LOX IMVI = assay: Antiproliferative activity against human LOXIMVI cells assessed as growth inhibition at 10 uM after 48 hrs by sulforhodamine B assay relative to control; details: read-out: GI
SK-MEL-5 = assay: Antiproliferative activity against human SK-MEL-5 cells assessed as growth inhibition at 10 uM after 48 hrs by sulforhodamine B assay relative to control; details: SK-MEL-5, 48 h, read-out: GI
MCF7 = assay: Antiproliferative activity against human MCF7 cells assessed as growth inhibition at 10 uM after 48 hrs by sulforhodamine B assay relative to control; details: MCF7, 48 h, read-out: GI
MOLT-4 = assay: Antiproliferative activity against human MOLT4 cells assessed as growth inhibition at 10 uM after 48 hrs by sulforhodamine B assay relative to control; details: MOLT-4, 48 h, read-out: GI
NCI-H522 = assay: Antiproliferative activity against human NCI-H522 cells assessed as growth inhibition at 10 uM after 48 hrs by sulforhodamine B assay relative to control; details: NCI-H522, 48 h, read-out: GI
K562 = assay: Antiproliferative activity against human K562 cells assessed as growth inhibition at 10 uM after 48 hrs by sulforhodamine B assay relative to control; details: K562, 48 h, read-out: GI
HCT-15 = assay: Antiproliferative activity against human HCT15 cells assessed as growth inhibition at 10 uM after 48 hrs by sulforhodamine B assay relative to control; details: HCT-15, 48 h, read-out: GI
ACHN = assay: Antiproliferative activity against human ACHN cells assessed as growth inhibition at 10 uM after 48 hrs by sulforhodamine B assay relative to control; details: read-out: GI
HL-60(TB) = assay: Antiproliferative activity against human HL-60(TB) cells assessed as growth inhibition at 10 uM after 48 hrs by sulforhodamine B assay relative to control; details: HL-60, 48 h, read-out: GI
NCI-H322M = assay: Antiproliferative activity against human NCI-H322M cells assessed as growth inhibition at 10 uM after 48 hrs by sulforhodamine B assay relative to control; details: read-out: GI
T47D = assay: Antiproliferative activity against human T47D cells assessed as growth inhibition at 10 uM after 48 hrs by sulforhodamine B assay relative to control; details: read-out: GI
SF-295 = assay: Antiproliferative activity against human SF295 cells assessed as growth inhibition at 10 uM after 48 hrs by sulforhodamine B assay relative to control; details: SF-295, 48 h, read-out: GI
HCT-116 = assay: Antiproliferative activity against human HCT116 cells assessed as growth inhibition at 10 uM after 48 hrs by sulforhodamine B assay relative to control; details: HCT-116, 48 h, read-out: GI
UO-31 = assay: Antiproliferative activity against human UO31 cells assessed as growth inhibition at 10 uM after 48 hrs by sulforhodamine B assay relative to control; details: UO-31, 48 h, read-out: GI
MDA-MB-468 = assay: Antiproliferative activity against human MDA-MB-468 cells assessed as growth inhibition at 10 uM after 48 hrs by sulforhodamine B assay relative to control; details: MDA-MB-468, 48 h, read-out: GI
NCI/ADR-RES = assay: Antiproliferative activity against human NCI/ADR-RES cells assessed as growth inhibition at 10 uM after 48 hrs by sulforhodamine B assay relative to control; details: read-out: GI
A549 = assay: Antiproliferative activity against human A549/ATCC cells assessed as growth inhibition at 10 uM after 48 hrs by sulforhodamine B assay relative to control; details: A549, 48 h, read-out: GI
CAKI-1 = assay: Antiproliferative activity against human Caki1 cells assessed as growth inhibition at 10 uM after 48 hrs by sulforhodamine B assay relative to control; details: CAKI-1, 48 h, read-out: GI
PC-3 = assay: Antiproliferative activity against human PC3 cells assessed as growth inhibition at 10 uM after 48 hrs by sulforhodamine B assay relative to control; details: PC-3, 48 h, read-out: GI
NCI-H460 = assay: Antiproliferative activity against human NCI-H460 cells assessed as growth inhibition at 10 uM after 48 hrs by sulforhodamine B assay relative to control; details: NCI-H460, 48 h, read-out: GI
OVCAR-4 = assay: Antiproliferative activity against human OVCAR4 cells assessed as growth inhibition at 10 uM after 48 hrs by sulforhodamine B assay relative to control; details: OVCAR-4, 48 h, read-out: GI

SMILES	inhibition of growth at 10 µM (UACC-62) [%]	inhibition of growth at 10 µM (SR) [%]	inhibition of growth at 10 µM (LOX IMVI) [%]	inhibition of growth at 10 µM (SK-MEL-5) [%]	inhibition of growth at 10 µM (MCF7) [%]	inhibition of growth at 10 µM (MOLT-4) [%]	inhibition of growth at 10 µM (NCI-H522) [%]	inhibition of growth at 10 µM (K562) [%]	inhibition of growth at 10 µM (HCT-15) [%]	inhibition of growth at 10 µM (ACHN) [%]	inhibition of growth at 10 µM (HL-60(TB)) [%]	inhibition of growth at 10 µM (NCI-H322M) [%]	inhibition of growth at 10 µM (T47D) [%]	inhibition of growth at 10 µM (SF-295) [%]	inhibition of growth at 10 µM (HCT-116) [%]	inhibition of growth at 10 µM (UO-31) [%]	inhibition of growth at 10 µM (MDA-MB-468) [%]	inhibition of growth at 10 µM (NCI/ADR-RES) [%]	inhibition of growth at 10 µM (CAKI-1) [%]	inhibition of growth at 10 µM (OVCAR-4) [%]	further results
CCOC(=O)C1=C(CSC(=S)N2CCOCC2)N(C)C(=O)NC1c1ccccc1 (stereo not drawn)	16	12	12	1	14	5	7	83	7	7	4	18	18	9	6	9	6	6			inhibition of growth at 10 µM (A549): 4%
CCOC(=O)C1=C(CSc2nc3ccccc3[nH]2)N(C)C(=O)NC1c1ccccc1 (stereo not drawn)	11	1	11		14	14	3	10	7	2	6	12		7	6	4	1	6	2		inhibition of growth at 10 µM (PC-3): 8%
CCOC(=O)C1=C(CSC(=S)N2CCN(c3ccccc3)CC2)N(C)C(=O)NC1c1ccccc1 (stereo not drawn)	24	44	13	23	15	24	28	22	48	11	20	15	37	17	41	37	14	5	15	15	inhibition of growth at 10 µM (NCI-H460): 12%; inhibition of growth at 10 µM (PC-3): 41%; inhibition of growth at 10 µM (A549): 27%
CCOC(=O)C1=C(CSC2=NCCS2)N(C)C(=O)NC1c1ccccc1 (stereo not drawn)	27	40	16	4	19	19	19	24	28	17	10	27	37	10	10	21	11	15	24	16	inhibition of growth at 10 µM (NCI-H460): 2%; inhibition of growth at 10 µM (A549): 16%
CCOC(=O)C1=C(CSc2nnnn2-c2ccccc2)N(C)C(=O)NC1c1ccccc1 (stereo not drawn)	17	13	14	2	15	26	14	17	8	3	7	18	17	11	12	21	3	14	14	4	
CCOC(=O)C1=C(CSC(=S)N2CCCCC2)N(C)C(=O)NC1c1ccccc1 (stereo not drawn)	28	27	11	25	12	30	25	20	35	15	33	15	45	13	34	29	20	12	17	16	inhibition of growth at 10 µM (NCI-H460): 10%; inhibition of growth at 10 µM (PC-3): 27%; inhibition of growth at 10 µM (A549): 29%
CCOC(=O)C1=C(CN2CCCC2)N(C)C(=O)NC1c1ccccc1 (stereo not drawn)		10	8		13	4	4	1	6			9	1	9	2	8		3	9		
CCOC(=O)C1=C(CSc2nnc(-c3ccccc3)o2)N(C)C(=O)NC1c1ccccc1 (stereo not drawn)	10	16	27	10	11	29	16	34	15	3	11	15	25	14	19	34	17	15	14	14	inhibition of growth at 10 µM (PC-3): 20%; inhibition of growth at 10 µM (A549): 5%
CCOC(=O)C1=C(Cn2cc(CO)nn2)N(C)C(=O)NC1c1ccccc1 (stereo not drawn)		2	7		12	11	5	10	6	2	2	9	1	4	5	7		4	8	3	
